Series [1] is described as follows: Determining the solubility (saturated solution in McIlvaine buffer pH 7.4, UV spectroscopy). In kind it is physicochemical. As to conditions: pH 7.4, aqueous buffer, thermodynamic from solid, shaken 2 hours, 0.75 mg solid in 0.75 ml. An outline of the steps: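 Excess solid (0.75 mg per 0.75 ml) shaken 2 h in McIlvaine buffer pH 7.4, then filtered through 0.45 μm PTFE membrane with first drops discarded. Dissolved amount measured by UV spectroscopy.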

Series [2] deals with cytochrome P450 2C9 (Homo sapiens, UniProt P11712). Put plainly: Determining the cyp2C9 activity (O-demethylation of [O-methyl-14C]-naproxen). The class given is in vitro ADME. The following applies: human recombinant cytochrome P450 2C9; 37° C.; <0.4 μM when inhibition >50% at lowest concentration; read-out: CYP 2C9 IC50. An outline of the steps: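 Recombinant CYP2C9 (40 pmol/ml) with 80 μM [O-methyl-14C]-naproxen in 0.1 M Tris, 5 mM MgCl2; test compound at 50, 10, 2 and 0.4 μM in duplicate. Started with 1 mM NADPH, stopped after 15 min with TCA; 14C-formaldehyde separated by solid-phase extraction and counted by scintillation. IC50 from least-squares fit.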
cytochrome P450 2C9, sequence (P11712 whole entry): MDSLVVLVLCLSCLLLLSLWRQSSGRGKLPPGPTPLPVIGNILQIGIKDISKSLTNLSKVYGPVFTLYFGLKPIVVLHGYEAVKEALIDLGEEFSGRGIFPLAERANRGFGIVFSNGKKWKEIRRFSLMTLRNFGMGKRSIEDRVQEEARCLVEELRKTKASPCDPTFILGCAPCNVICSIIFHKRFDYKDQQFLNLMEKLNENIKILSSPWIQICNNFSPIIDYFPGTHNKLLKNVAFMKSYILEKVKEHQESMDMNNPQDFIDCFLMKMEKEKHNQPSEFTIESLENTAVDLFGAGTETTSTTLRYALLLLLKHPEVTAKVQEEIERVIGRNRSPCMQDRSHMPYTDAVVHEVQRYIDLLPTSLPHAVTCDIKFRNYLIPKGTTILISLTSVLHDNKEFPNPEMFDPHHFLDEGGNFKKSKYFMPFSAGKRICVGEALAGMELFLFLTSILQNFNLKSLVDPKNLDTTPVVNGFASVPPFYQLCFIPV

Series [3] addresses p38 MAP-kinase (Homo sapiens, UniProt Q16539). The series can be described thus: p38 MAP-kinase enzymatic assay (phosphorylation of GST-tagged ATF2, chemoluminescence). The following applies: inhibitor concentration 1 μM; activated p38 MAP-kinase 1 nM; ATP 100 μM; read-out: p38 (% Inh @ 1 μM). In kind it is biochemical. The method in brief:
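Activated p38 MAP-kinase (1 nM) preincubated 4 h at ambient temperature with 1 μM compound in HEPES pH 7, MgCl2, DTT, TWEEN20, then reacted 1 h with 10 nM GST-ATF2 and 100 μM ATP. Phospho-ATF2 detected by AlphaScreen-type bead luminescence; percent inhibition at 1 μM versus uninhibited and kinase-free controls.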

Values after ≈ are worked out from the molar mass of the structure shown.

Results on 14 molecules are retold here after patent US8686022B2, “7-(piperazine-1-ymethyl)-1H-indole-2-carboxylic acid (phenyl)-amide derivatives and allied compounds as p38 MAP kinase inhibitors for the treatment of respiratory diseases” (Boehringer Ingelheim International GmbH, priority 2008, dated 2014).

The solubility is the concentration that dissolves in the medium under given conditions. Lower therefore signals little dissolved substance. One may read the IC50 as the midpoint of a concentration-inhibition curve.

p38 MAP-kinase, sequence (Q16539 whole entry): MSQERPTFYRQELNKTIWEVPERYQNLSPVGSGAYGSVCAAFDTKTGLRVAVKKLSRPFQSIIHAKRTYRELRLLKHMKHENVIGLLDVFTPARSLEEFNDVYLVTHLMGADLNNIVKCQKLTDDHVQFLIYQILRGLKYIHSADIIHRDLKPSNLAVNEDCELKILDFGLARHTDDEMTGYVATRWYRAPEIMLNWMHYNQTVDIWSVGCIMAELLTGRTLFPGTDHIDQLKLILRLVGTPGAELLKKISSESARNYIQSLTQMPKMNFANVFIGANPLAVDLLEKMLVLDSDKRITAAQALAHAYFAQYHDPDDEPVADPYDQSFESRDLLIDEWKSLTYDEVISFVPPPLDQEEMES

Take `CCNC(=O)c1cc(C(C)(C)C)cc(NC(=O)c2cc3cccc(CN4CCN(C(=O)[C@@H]5CCCN5C)CC4)c3n2C)c1OC` [10(2), (S)-1-methyl-7-[4-(1-methyl-pyrrolidine-2-carbonyl)-piperazin-1-ylmethyl]-1H-indole-2-carboxylic acid-(5-tert-butyl-3-ethylcarbamoyl-2-methoxy-phenyl)-amide]: the concentration in solution in series [1] (solubility at 2 h) came to 390 µg/mL (≈ 632 µM). In series [2], the IC50 was 460 nM. For the same molecule, the inhibition at 1 µM in series [3] worked out at 99.4%.
For `CNC(=O)c1cc(C(C)(C)C)cc(NC(=O)c2cc3cccc(CN4CCN(C(=O)[C@@H]5CCCN5C)CC4)c3n2C)c1OC` [10(3), (S)-1-methyl-7-[4-(1-methyl-pyrrolidine-2-carbonyl)-piperazin-1-ylmethyl]-1H-indole-2-carboxylic acid-(5-tert-butyl-2-methoxy-3-methylcarbamoyl-phenyl)-amide] the same measures were 590 µg/mL (≈ 979 µM), 1600 nM and 99.3%.
As to `COc1c(NC(=O)c2cc3cccc(CN4CCN(C(=O)[C@@H]5CCCN5C)CC4)c3n2C)cc(C(C)(C)C)cc1C(N)=O` [10(4), (S)-1-methyl-7-[4-(1-methyl-pyrrolidine-2-carbonyl)-piperazin-1-ylmethyl]-1H-indole-2-carboxylic acid-(5-tert-butyl-3-carbamoyl-2-methoxy-phenyl)-amide], the solubility at 2 h in series [1] came out at 370 µg/mL (≈ 628 µM). Further, the IC50 in series [2] came to 440 nM. The inhibition at 1 µM in series [3] turned out to be 99.1%.
For `CCC(C)c1cc(NC(=O)c2cc3cccc(CN4CCN(C(=O)[C@@H]5CCCN5C)CC4)c3n2C)c(OC)c(NS(C)(=O)=O)c1` (stereo partly drawn) [11(1), 1-methyl-7-[4-((2S)-1-methyl-pyrrolidine-2-carbonyl)-piperazin-1-ylmethyl]-1H-indole-2-carboxylic acid-(5-sec-butyl-3-methanesulphonylamino-2-methoxy-phenyl)-amide] the same measures were over 1000 µg/mL, 2650 nM and 13.2%.
As to `COc1c(NC(=O)c2cc3cccc(CN4CCN(C(=O)[C@@H]5CCCN5C)CC4)c3n2C)cc(C(C)C)cc1NS(C)(=O)=O` [11(2), (S)-1-methyl-7-[4-(1-methyl-pyrrolidine-2-carbonyl)-piperazin-1-ylmethyl]-1H-indole-2-carboxylic acid-(5-isopropyl-3-methanesulphonylamino-2-methoxy-phenyl)-amide], the solubility at 2 h in series [1] was over 1000 µg/mL. The IC50 in series [2] worked out at 10400 nM. In addition, in series [3], the inhibition at 1 µM is 18%.
As to `COc1c(NC(=O)c2cc3cccc(CN4CCN(C(=O)[C@@H]5CCCN5C)CC4)c3n2C)cc(C(C)(C)C)cc1S(C)(=O)=O` [11(4), (S)-1-methyl-7-[4-(1-methyl-pyrrolidine-2-carbonyl)-piperazin-1-ylmethyl]-1H-indole-2-carboxylic acid-(5-tert-butyl-3-methanesulphonyl-2-methoxy-phenyl)-amide], the solubility at 2 h in series [1] was determined as 43 µg/mL (≈ 68.9 µM). Besides, the IC50 in series [2] amounted to 460 nM. In addition, in series [3], the inhibition at 1 µM came out at 99.5%.
Turning to `COc1c(CS(C)(=O)=O)cc(C(C)(C)C)cc1NC(=O)c1cc2cccc(CN3CCN(C(=O)[C@@H]4CCCN4C)CC3)c2n1C` [11(5), (S)-1-methyl-7-[4-(1-methyl-pyrrolidine-2-carbonyl)-piperazin-1-ylmethyl]-1H-indole-2-carboxylic acid-(5-tert-butyl-3-methanesulphonylmethyl-2-methoxy-phenyl)-amide], in series [1], the solubility at 2 h is 53 µg/mL (≈ 83.1 µM). For the same molecule, the IC50 in series [2] turned out to be 2340 nM. Further, the inhibition at 1 µM in series [3] amounted to 99.6%.
The matching figures for `COc1c(C[S+](C)[O-])cc(C(C)(C)C)cc1NC(=O)c1cc2cccc(CN3CCN(C(=O)[C@@H]4CCCN4C)CC3)c2n1C` (stereo partly drawn) [11(6), 1-methyl-7-[4-((2S)-1-methyl-pyrrolidine-2-carbonyl)-piperazin-1-ylmethyl]-1H-indole-2-carboxylic acid-(5-tert-butyl-3-methanesulphinylmethyl-2-methoxy-phenyl)-amide]: 680 µg/mL (≈ 1090 µM), 3180 nM and 99.6%.
For `CCOc1c(NC(=O)c2cc3cccc(CN4CCN(C(=O)[C@@H]5CCCN5C)CC4)c3n2C)cc(C(C)(C)C)cc1NS(C)(=O)=O` [11(7), (S)-1-methyl-7-[4-(1-methyl-pyrrolidine-2-carbonyl)-piperazin-1-ylmethyl]-1H-indole-2-carboxylic acid-(5-tert-butyl-3-methanesulphonylamino-2-ethoxy-phenyl)-amide] the same measures were 110 µg/mL (≈ 168 µM), 410 nM and 99.3%.
The matching figures for `CCCC(=O)Nc1cc(C(C)(C)C)cc(NC(=O)c2cc3cccc(CN4CCN(C(=O)[C@@H]5CCCN5C)CC4)c3n2C)c1OC` [12(1), (S)-1-methyl-7-[4-(1-methyl-pyrrolidine-2-carbonyl)-piperazin-1-ylmethyl]-1H-indole-2-carboxylic acid-(5-tert-butyl-3-butyrylamino-2-methoxy-phenyl)-amide]: 44 µg/mL (≈ 69.7 µM), 960 nM and 87.7%.
As for `COc1c(NC(C)=O)cc(C(C)(C)C)cc1NC(=O)c1cc2cccc(CN3CCN(C(=O)[C@@H]4CCCN4C)CC3)c2n1C` [12(2), (S)-1-methyl-7-[4-(1-methyl-pyrrolidine-2-carbonyl)-piperazin-1-ylmethyl]-1H-indole-2-carboxylic acid-(3-acetylamino-5-tert-butyl-2-methoxy-phenyl)-amide], the concentration in solution in series [1] (solubility at 2 h) was 630 µg/mL (≈ 1050 µM). Further, the IC50 in series [2] worked out at 3460 nM. In series [3], the inhibition at 1 µM was found to be 98.2%.
For `COc1c(NC(=O)c2cc3cccc(CN4CCN(C(=O)[C@@H]5CCCN5C)CC4)c3n2C)cc(C(C)(C)C)cc1NC(=O)C(C)C` [12(3), (S)-1-methyl-7-[4-(1-methyl-pyrrolidine-2-carbonyl)-piperazin-1-ylmethyl]-1H-indole-2-carboxylic acid-(5-tert-butyl-3-isobutyrylamino-2-methoxy-phenyl)-amide] the same measures were 91 µg/mL (≈ 144 µM), 2150 nM and 97.3%.
Molecule `COc1c(NC(=O)c2cc3cccc(CN4CCN(C(=O)[C@@H]5CCCN5C)CC4)c3n2C)cc(C(C)(C)C)cc1NC(=O)C1CC1` [12(4), (S)-1-methyl-7-[4-(1-methyl-pyrrolidine-2-carbonyl)-piperazin-1-ylmethyl]-1H-indole-2-carboxylic acid-[5-tert-butyl-3-(cyclopropanecarbonyl-amino)-2-methoxy-phenyl]-amide] registered a solubility at 2 h in series [1] of 59 µg/mL (≈ 93.8 µM). Further, in series [2], the IC50 came to 650 nM. Moreover, the inhibition at 1 µM in series [3] amounted to 96.4%.
The matching figures for `COc1c(NC(=O)c2cc3cccc(CN4CCN(C(=O)[C@@H]5CCCN5C)CC4)c3n2C)cc(C(C)(C)C)cc1NS(=O)(=O)C1CC1` [13(1), (S)-1-methyl-7-[4-(1-methyl-pyrrolidine-2-carbonyl)-piperazin-1-ylmethyl]-1H-indole-2-carboxylic acid-(5-tert-butyl-3-cyclopropanesulphonylamino-2-methoxy-phenyl)-amide]: 12 µg/mL (≈ 18 µM), 670 nM and 99.3%.
